# Experimental data published in US12533377B2 (OXYMO TECHNOLOGIES INC., priority 2016, dated 2026).
# Read-outs that look alike come from different tables or passages of the source. Marks after values point to notes of the source that are not given here.
# Columns and labels:
# [1] = tested on: chorioallantoic membrane of a fertilized hen egg; assay: Ocular irritation test HET-CAM
# Experimental: The ocular irritation test used was the substitution test HET-CAM (Hen's Egg Test—Chorioallantoic Membrane), published in the Official Journal dated 26 Dec. 1996. It is recommended by ICCVAM.
# At 0.5, 2 and 5 mins post-contact, the three following criteria are observed and scored: hemorrhage, coagulation and hyperemia.
# HSV-1 [2] = assay: Model 1: Mixture 1 on cells infected with HSV-1, qPCR of viral genome in BHK-21; type: cell-based, Herpes simplex 1
# Source text: (§1) Symp. Quant. […] Model 1:
# BHK-21 line [3] = assay: Model 1: cytotoxicity on the BHK-21 line, qPCR of 18S gene; type: cell-based; details: ACV 1 mg/L, 8 h post-contact of 2 mins
# Source text: as §1
# BHK-21 line [4] = assay: Model 3: cytotoxicity on the BHK-21 line, qPCR of 18S gene; type: cell-based; details: ACV 1 mg/L, 8 h post-contact of 2 mins
# Source text: as §1
# HSV-1 [5] = assay: Model 3: Mixture 1 on cells not yet infected and on free HSV-1, qPCR of viral genome in BHK-21; type: cell-based, Herpes simplex 1
# Source text: as §1
# HSV-1 [6] = assay: Model 2: Mixture 1 on cells not yet infected with HSV-1, qPCR of viral genome in BHK-21; type: cell-based, Herpes simplex 1
# Source text: as §1
# HSV-1 [7] = assay: Model 4: Mixture 1 on HSV-1 before infection, qPCR of viral genome in BHK-21; type: cell-based, Herpes simplex 1
# Source text: as §1
# BHK-21 line [8] = assay: Model 2: cytotoxicity on the BHK-21 line, qPCR of 18S gene; type: cell-based; details: ACV 1 mg/L, 8 h post-contact of 2 mins
# Source text: as §1
# BHK-21 line [9] = assay: Model 4: cytotoxicity on the BHK-21 line, qPCR of 18S gene; type: cell-based; details: ACV 10^3 mg/L, 8 h post-contact of 2 mins
# Source text: as §1
# [10] = tested on: immature erythrocytes (reticulocytes)
# Experimental: The morbidity, the mortality, the weight of the animals and the clinical parameters (temperature, skin, hair, eyes, mucous membranes, secretions and excretions, respiratory and neurological function, gait and posture) were noted. 36 h to 48 h after the second treatment, the blood of the animals was collected and analyzed in flow cytometry (toxicity control: reduction of the proportion of immature erythrocytes (CD-71-positive). The proportion of micro-nucleated immature erythrocytes (reticulocytes) was evaluated on 4,000 observations per blood sample. Each rat population (n=10) for each tested substance represents 40,000 observations (Table 5).
# [11] = control Line + (PBS + HSV), ACV 1 mg/L, 8 h post-contact of 2 mins
# [12] = 100 mg/kg intraperitoneal, female
# [13] = 100 mg/kg intraperitoneal, male
# [14] = 150 mg/kg intraperitoneal, female
# [15] = 150 mg/kg intraperitoneal, male
compound,measurement,setting,value
"CCCCCCCCCCCCOS(=O)(=O)[O-].[Na+] [1% SDS, sodium dodecyl sulfate]",IS of the positive substances of reference,[1],10±2
"Nc1nc2c(ncn2COCCO)c(=O)[nH]1 [ACV, acyclovir]",Reduction of the HSV-1 replication at t 8 h,"HSV-1 [2]; contact 2 min, ACV 10^3 μg/L",−12%
same,"HSV (%), replication of HSV-1 by qPCR",HSV-1 [2]; [11],76 (1) %
same,"18S (%), multiplication of the BHK-21 line by qPCR",BHK-21 line [3]; control Line + (PBS + HSV),118 (1) %
same,"18S (%), multiplication of the BHK-21 line by qPCR",BHK-21 line [3]; control Line + (PBS − HSV),108 (1) %
same,"18S (%), multiplication of the BHK-21 line by qPCR",BHK-21 line [4]; control Line + (PBS + HSV),92 (1) %
same,"18S (%), multiplication of the BHK-21 line by qPCR",BHK-21 line [4]; control Line + (PBS − HSV),111 (1) %
same,Reduction of the HSV-1 replication at t 8 h,"HSV-1 [5]; contact 2 min, ACV 10^3 μg/L",−6%
same,"HSV (%), replication of HSV-1 by qPCR",HSV-1 [5]; [11],86 (1) %
same,Reduction of the HSV-1 replication at t 8 h,"HSV-1 [6]; contact 2 min, ACV 10^3 μg/L",−1%
same,"HSV (%), replication of HSV-1 by qPCR",HSV-1 [6]; [11],61 (1) %
same,Reduction of the HSV-1 replication at t 8 h,"HSV-1 [7]; contact 2 min, [ACV]: 1 g/L",−52^# %
same,"HSV (%), replication of HSV-1 by qPCR","HSV-1 [7]; control Line + (PBS + HSV), ACV 10^3 mg/L, 8 h post-contact of 2 mins",54%
same,"18S (%), multiplication of the BHK-21 line by qPCR",BHK-21 line [8]; control Line + (PBS + HSV),62 (1) %
same,"18S (%), multiplication of the BHK-21 line by qPCR",BHK-21 line [8]; control Line + (PBS − HSV),57 (1) %
same,"18S (%), multiplication of the BHK-21 line by qPCR",BHK-21 line [9]; control Line + (PBS + HSV),111%
same,"18S (%), multiplication of the BHK-21 line by qPCR",BHK-21 line [9]; control Line + (PBS − HSV),97%
"O=P1(N(CCCl)CCCl)NCCCO1 (stereo not shown) [Cyclophosphamide, cyclophosphamide]",Micro-nucleated reticulocytes (%),"[10]; 5 mg/kg intravenous, female",0.40 ± 0.13%
same,Reticulocytes (%),"[10]; 5 mg/kg intravenous, female",2.41 ± 0.54%
same,Micro-nucleated reticulocytes (%),"[10]; 5 mg/kg intravenous, male",0.56 ± 0.17%
same,Reticulocytes (%),"[10]; 5 mg/kg intravenous, male",3.99 ± 0.49%
same,Micro-nucleated reticulocytes (%),"[10]; 10 mg/kg intravenous, female",1.02 ± 0.26 %
same,Reticulocytes (%),"[10]; 10 mg/kg intravenous, female",1.30 ± 0.43%
same,Micro-nucleated reticulocytes (%),"[10]; 10 mg/kg intravenous, male",1.62 ± 0.29%
same,Reticulocytes (%),"[10]; 10 mg/kg intravenous, male",1.95 ± 0.59%
"CCOS(C)(=O)=O [Methanesulfonate, ethyl methanesulfonate]",Micro-nucleated reticulocytes (%),[10]; [12],0.48 ± 0.16 %
same,Reticulocytes (%),[10]; [12],1.86 ± 0.25%
same,Micro-nucleated reticulocytes (%),[10]; [13],0.68 ± 0.35 %
same,Reticulocytes (%),[10]; [13],1.41 ± 0.32%
same,Micro-nucleated reticulocytes (%),[10]; [14],0.59 ± 0.26 %
same,Reticulocytes (%),[10]; [14],0.45 ± 0.33%
same,Micro-nucleated reticulocytes (%),[10]; [15],0.81 ± 0.48 %
same,Reticulocytes (%),[10]; [15],1.33 ± 0.34%
"[Na+].[OH-] [NaOH 0.1M, NaOH]",IS of the positive substances of reference,[1],15±3
